SMILES strings stand for the structures.

T1 sequence (Q00975 whole entry): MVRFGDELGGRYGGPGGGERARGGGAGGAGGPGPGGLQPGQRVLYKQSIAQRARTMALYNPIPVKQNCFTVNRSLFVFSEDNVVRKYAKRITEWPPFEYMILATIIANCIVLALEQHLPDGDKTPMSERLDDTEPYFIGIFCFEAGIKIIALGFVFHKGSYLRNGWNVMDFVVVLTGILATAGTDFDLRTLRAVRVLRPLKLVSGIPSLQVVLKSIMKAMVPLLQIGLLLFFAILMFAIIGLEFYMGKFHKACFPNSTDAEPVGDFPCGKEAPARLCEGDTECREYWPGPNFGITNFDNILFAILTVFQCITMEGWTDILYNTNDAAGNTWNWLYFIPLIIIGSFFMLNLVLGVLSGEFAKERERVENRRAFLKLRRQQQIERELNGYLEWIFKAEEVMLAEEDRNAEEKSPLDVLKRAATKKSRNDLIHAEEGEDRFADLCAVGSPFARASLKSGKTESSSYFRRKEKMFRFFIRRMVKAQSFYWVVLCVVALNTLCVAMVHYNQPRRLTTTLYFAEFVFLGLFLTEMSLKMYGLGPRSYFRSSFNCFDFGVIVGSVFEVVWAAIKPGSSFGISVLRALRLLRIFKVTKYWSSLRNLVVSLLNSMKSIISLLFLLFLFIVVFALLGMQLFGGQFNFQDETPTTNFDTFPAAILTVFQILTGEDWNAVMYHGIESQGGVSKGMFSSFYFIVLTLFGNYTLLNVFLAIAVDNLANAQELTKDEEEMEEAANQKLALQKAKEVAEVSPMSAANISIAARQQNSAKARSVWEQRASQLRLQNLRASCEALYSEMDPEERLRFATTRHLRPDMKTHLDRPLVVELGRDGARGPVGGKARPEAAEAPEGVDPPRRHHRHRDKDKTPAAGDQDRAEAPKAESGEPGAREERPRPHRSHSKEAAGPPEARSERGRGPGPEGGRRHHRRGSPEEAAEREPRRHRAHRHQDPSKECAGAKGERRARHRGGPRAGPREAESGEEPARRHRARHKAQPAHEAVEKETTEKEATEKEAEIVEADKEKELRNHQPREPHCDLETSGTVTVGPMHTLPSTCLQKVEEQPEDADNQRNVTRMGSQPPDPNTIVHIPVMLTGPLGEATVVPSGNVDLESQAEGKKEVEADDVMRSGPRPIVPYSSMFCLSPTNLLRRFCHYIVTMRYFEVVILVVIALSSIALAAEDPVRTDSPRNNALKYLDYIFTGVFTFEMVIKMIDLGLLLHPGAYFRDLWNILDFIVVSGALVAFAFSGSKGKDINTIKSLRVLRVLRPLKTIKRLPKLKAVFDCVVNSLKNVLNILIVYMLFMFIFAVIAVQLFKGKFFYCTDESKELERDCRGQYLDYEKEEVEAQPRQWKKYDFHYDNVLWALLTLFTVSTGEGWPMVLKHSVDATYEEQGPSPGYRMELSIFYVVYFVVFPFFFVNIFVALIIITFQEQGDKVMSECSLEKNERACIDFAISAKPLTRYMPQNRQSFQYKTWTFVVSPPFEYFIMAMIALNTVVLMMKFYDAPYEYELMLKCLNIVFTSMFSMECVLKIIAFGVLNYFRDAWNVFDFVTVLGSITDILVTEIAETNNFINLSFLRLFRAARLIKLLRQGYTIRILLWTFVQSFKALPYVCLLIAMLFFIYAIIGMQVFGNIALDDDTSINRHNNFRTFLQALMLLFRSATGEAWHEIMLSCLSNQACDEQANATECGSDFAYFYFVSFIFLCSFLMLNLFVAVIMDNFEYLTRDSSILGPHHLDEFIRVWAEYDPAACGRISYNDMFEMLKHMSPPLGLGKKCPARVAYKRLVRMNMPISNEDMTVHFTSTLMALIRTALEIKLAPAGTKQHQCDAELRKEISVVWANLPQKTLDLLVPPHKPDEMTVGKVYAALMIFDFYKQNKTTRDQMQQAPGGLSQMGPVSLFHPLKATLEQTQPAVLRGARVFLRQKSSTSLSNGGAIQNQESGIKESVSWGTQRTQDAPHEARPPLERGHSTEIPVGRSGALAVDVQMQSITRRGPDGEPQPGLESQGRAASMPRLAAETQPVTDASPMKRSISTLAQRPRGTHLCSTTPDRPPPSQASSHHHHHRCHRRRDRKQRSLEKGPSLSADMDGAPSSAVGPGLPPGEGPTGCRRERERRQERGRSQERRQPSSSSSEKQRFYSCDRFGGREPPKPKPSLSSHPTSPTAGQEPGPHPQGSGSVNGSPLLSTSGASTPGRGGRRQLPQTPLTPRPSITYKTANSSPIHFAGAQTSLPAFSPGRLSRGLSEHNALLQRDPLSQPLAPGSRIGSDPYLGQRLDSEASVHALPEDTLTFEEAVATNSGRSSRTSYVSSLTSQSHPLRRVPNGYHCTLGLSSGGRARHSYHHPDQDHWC
T1 sequence (P54289 25-956 partner limits assumed): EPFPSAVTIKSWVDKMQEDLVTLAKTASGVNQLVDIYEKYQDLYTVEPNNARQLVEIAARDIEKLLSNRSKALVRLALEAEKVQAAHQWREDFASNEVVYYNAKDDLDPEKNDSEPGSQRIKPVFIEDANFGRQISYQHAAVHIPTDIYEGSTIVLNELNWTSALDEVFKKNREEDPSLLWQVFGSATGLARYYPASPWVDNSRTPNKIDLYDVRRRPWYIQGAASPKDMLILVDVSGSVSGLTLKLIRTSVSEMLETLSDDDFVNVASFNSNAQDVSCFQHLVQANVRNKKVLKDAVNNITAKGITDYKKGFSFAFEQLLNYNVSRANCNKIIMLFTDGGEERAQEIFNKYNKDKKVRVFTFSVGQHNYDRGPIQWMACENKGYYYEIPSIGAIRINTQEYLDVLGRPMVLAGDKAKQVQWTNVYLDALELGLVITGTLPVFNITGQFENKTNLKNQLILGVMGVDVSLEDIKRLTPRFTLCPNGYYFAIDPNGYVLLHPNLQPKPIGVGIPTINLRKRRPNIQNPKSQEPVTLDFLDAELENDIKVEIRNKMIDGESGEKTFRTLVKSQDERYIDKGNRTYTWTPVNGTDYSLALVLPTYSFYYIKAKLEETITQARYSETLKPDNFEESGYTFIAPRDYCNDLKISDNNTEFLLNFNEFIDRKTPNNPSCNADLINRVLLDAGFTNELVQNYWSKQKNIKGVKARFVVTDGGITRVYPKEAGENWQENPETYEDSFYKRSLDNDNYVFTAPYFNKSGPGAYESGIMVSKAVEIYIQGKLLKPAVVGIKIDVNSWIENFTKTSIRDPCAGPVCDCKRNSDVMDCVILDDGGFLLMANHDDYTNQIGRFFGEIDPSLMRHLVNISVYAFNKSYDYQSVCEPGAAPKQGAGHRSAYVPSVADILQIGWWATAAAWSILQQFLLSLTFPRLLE
T1 sequence (P54289 957-1103 partner limits assumed): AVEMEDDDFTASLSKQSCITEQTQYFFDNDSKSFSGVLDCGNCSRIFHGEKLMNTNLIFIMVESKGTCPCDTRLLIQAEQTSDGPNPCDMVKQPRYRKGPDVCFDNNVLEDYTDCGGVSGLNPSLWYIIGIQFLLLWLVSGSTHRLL
T1 sequence (P54284 whole entry partner): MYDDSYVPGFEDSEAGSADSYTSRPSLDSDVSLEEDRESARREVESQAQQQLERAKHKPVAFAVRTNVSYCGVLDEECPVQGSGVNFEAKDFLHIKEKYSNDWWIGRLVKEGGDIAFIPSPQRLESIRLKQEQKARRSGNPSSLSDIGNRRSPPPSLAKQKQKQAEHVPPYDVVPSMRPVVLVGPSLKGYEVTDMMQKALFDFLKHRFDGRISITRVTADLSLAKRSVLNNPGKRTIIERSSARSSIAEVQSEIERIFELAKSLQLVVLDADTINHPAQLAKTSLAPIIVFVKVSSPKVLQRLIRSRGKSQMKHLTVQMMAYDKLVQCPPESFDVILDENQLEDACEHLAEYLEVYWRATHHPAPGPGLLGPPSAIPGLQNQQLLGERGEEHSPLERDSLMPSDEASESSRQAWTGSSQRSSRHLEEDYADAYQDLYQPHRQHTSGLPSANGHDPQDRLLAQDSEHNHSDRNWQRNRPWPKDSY

The experiment has as its target T1, N-type Ca2+ channels in IMR-32 cells (Homo sapiens, UniProt Q00975).
T1 construct: host or cells: IMR-32 cells, differentiated with dibutyryl cAMP and bromodeoxyuridine
The experiment can be described thus: Inhibition of N-type calcium flux in IMR-32 cells (Indo-1 fluorescence, nitrendipine present). Type of experiment: cell-based. The note with it: 1 μM. How it is done:
Measurement of N-type Ca^2+ Channel Blocking Potencies of Compounds in IMR-32 Cells Using the Fluorescent Ca^2+ Indicator Indo-1
IMR-32 cells are a human tumoral cell line of neural origin. […] Calcium flux into these cells may be induced by stimulation with elevated potassium concentrations. The L-channel component of calcium flux may be blocked by adding 5 μM nitrendipine. The remaining component of calcium entry into the IMR-32 cells is due to calcium flux through N-type calcium channels. Intracellular calcium concentrations are measured using the fluorescent calcium indicator Indo 1. The effect of drug concentration on calcium uptake is studied.
The IMR-32 cell line was obtained from the American Type Culture Collection (Rockville, Md.). Cells were grown in Eagle's Minimum Essential Medium with Eagle's salts supplemented with 10% fetal bovine serum, 2 mM L-Gln and antibiotic/antimycotic mixture (Gibco). […] After 7 to 13 days of differentiation, cells were detached using 0.5 mM EDTA and loaded with 5 μM Indo-1 acetoxymethyl ester (Molecular Probes, Eugene, OR) at […] for 45 minutes. Loaded cells were washed twice, resuspended (˜10^7 cells/mL) in assay buffer (10 mM HEPES/Tris pH 7.4 in Hank's Balanced Salt Solution without bicarbonate or phenol red containing 0.5% bovine serum albumin) and kept on ice until use. Fluorescence measurements were carried out in a Photon Technology International (PTI, South Brunswick, N.J.) Model RF-F3004 spectrofluorometer with dual emission monochromators using excitation at 350 nm and emission at 400 and 490 nm. The instrument was equipped with a thermostated cuvette holder with stirring capabilities as well as with a computer-controlled pump which allowed for reagent addition during measurement. Instrument control and data collection was done by PTI's OSCAR software running on an IBM compatible computer. […] Samples were incubated for 10 minutes at 30° C. and then aliquoted into three 10×10 mm disposable acrylic cuvettes. Emission signals at 400 and 490 nm were acquired from each cuvette at 30° C. for 50 seconds. At 20 seconds after the start of reading, cells were depolarized by the addition of 160 μL of stimulation solution (1M KCl, 68 mM CaCl2) to the cuvette via the computer-controlled pump. Ratio of dual emission signals (400 nm/490 nm), which is proportional to intracellular Ca^2+ concentration, was plotted against time, and the difference between maximal response after stimulation and basal value (before stimulation) was determined. Values obtained in this way were plotted as a function of drug concentration. IC50 values of test compounds were calculated by fitting a four-parameter logistic function to the data using the least squares method.
For orientation: Calcium assays in cells follow changes in intracellular calcium, usually with a dye or a luminescent sensor.
On to `Cc1cccc(C)c1NC(=O)N[C@@H](CC(C)C)C(=O)N[C@@H](Cc1ccc(OCc2ccccc2)cc1)C(=O)OC(C)(C)C` (relative stereo) [Example 62, [S-(R*,R*)]-3-(4-Benzyloxy-phenyl)-2-{2-[3-(2,6-dimethyl-phenyl)-ureido]-4-methyl-pentanoylamino}-propionic acid tert-butyl ester], for which the “Inhibition of Calcium Flux in IMR-32 Cells % Inhibition at 1 μM” value is listed as 29%. As for `CSc1ccc(NC(=O)N[C@@H](CC(C)C)C(=O)N[C@@H](Cc2ccc(OCc3ccccc3)cc2)C(=O)OC(C)(C)C)cc1` (relative stereo) [Example 64, [S-(R*,R*)]-3-(4-Benzyloxy-phenyl)-2-{4-methyl-2-[3-(4-methylsulfanyl-phenyl)-ureido]-pentanoylamino}-propionic acid tert-butyl ester], the figure is 31%.

Consider `CC(C)C[C@H](NC(=O)Nc1ccc(Oc2ccccc2)cc1)C(=O)N[C@@H](Cc1ccc(OCc2ccccc2)cc1)C(=O)OC(C)(C)C` (relative stereo) [Example 65, [S-(R*,R*)]-3-(4-Benzyloxy-phenyl)-2-{4-methyl-2-[3-(4-phenoxy-phenyl)-ureido]pentanoylamino}-propionic acid tert-butyl ester], for which the “Inhibition of Calcium Flux in IMR-32 Cells % Inhibition at 1 μM” value was 28%. On to `COc1ccc(NC(=O)N[C@@H](CC(C)C)C(=O)N[C@@H](Cc2ccc(OCc3ccccc3)cc2)C(=O)OC(C)(C)C)cc1` (relative stereo) [Example 68, [S-(R*,R*)]-3-(4-Benzyloxy-phenyl)-2-{2-[3-(4-methoxy-phenyl)-ureido]-4-methyl-pentanoylamino}-propionic acid tert-butyl ester], for which the “Inhibition of Calcium Flux in IMR-32 Cells % Inhibition at 1 μM” value is recorded as 31%. As for `CC(C)C[C@H](NC(=O)Nc1ccc(F)cc1F)C(=O)N[C@@H](Cc1ccc(OCc2ccccc2)cc1)C(=O)OC(C)(C)C` (relative stereo) [Example 69, [S-(R*,R*)]-3-(4-Benzyloxy-phenyl)-2-{2-[3-(2,4-difluoro-phenyl)-ureido]-4-methyl-pentanoylamino}-propionic acid tert-butyl ester], the figure is 31%; as for `CC(C)C[C@H](NC(=O)Nc1ccc(C(F)(F)F)cc1)C(=O)N[C@@H](Cc1ccc(OCc2ccccc2)cc1)C(=O)OC(C)(C)C` (relative stereo) [Example 70, [S-(R*,R*)]-3-(4-Benzyloxy-phenyl)-2-{4-methyl-2-[3-(4-trifluoromethyl-phenyl)-ureido]-pentanoylamino}-propionic acid tert-butyl ester], 25%. The value for `COc1ccccc1NC(=O)N[C@@H](CC(C)C)C(=O)N[C@@H](Cc1ccc(OCc2ccccc2)cc1)C(=O)OC(C)(C)C` (relative stereo) [Example 71, [S-(R*,R*)]-3-(4-Benzyloxy-phenyl)-2-{2-[3-(2-methoxy-phenyl)-ureido]-4-methyl-pentanoylamino}-propionic acid tert-butyl ester] was 55%; that for `Cc1cc(C)cc(NC(=O)N[C@@H](CC(C)C)C(=O)N[C@@H](Cc2ccc(OCc3ccccc3)cc2)C(=O)OC(C)(C)C)c1` (relative stereo) [Example 72, [S-(R*,R*)]-3-(4-Benzyloxy-phenyl)-2-{2-[3-(3,5-dimethyl-phenyl)-ureido]-4-methyl-pentanoylamino}-propionic acid tert-butyl ester] was 31%; that for `CC(C)C[C@H](NC(=O)Nc1ccccc1Cl)C(=O)N[C@@H](Cc1ccc(OCc2ccccc2)cc1)C(=O)OC(C)(C)C` (relative stereo) [Example 73, [S-(R*,R*)]-3-(4-Benzyloxy-phenyl)-2-{2-[3-(2-chloro-phenyl)-ureido]-4-methylpentanoylamino}-propionic acid tert-butyl ester] was 60%. Take `CC(C)C[C@H](NC(=O)Nc1cccc(Cl)c1)C(=O)N[C@@H](Cc1ccc(OCc2ccccc2)cc1)C(=O)OC(C)(C)C` (relative stereo) [Example 74, [S-(R*,R*)]-3-(4-Benzyloxy-phenyl)-2-{2-[3-(3-chloro-phenyl)-ureido]-4-methyl-pentanoylamino}-propionic acid tert-butyl ester]: the “Inhibition of Calcium Flux in IMR-32 Cells % Inhibition at 1 μM” value was 45%. The value for `CC(C)C[C@H](NC(=O)NC1CC1c1ccccc1)C(=O)N[C@@H](Cc1ccc(OCc2ccccc2)cc1)C(=O)OC(C)(C)C` (relative stereo) [Example 75, [S-(R*,R*)]-3-(4-Benzyloxy-phenyl)-2-{4-methyl-2-[3-(2-phenyl-cyclopropyl)-ureido]-pentanoylamino}-propionic acid tert-butyl ester] was 28%; that for `CC(C)C[C@H](NC(=O)Nc1cccc(C(F)(F)F)c1)C(=O)N[C@@H](Cc1ccc(OCc2ccccc2)cc1)C(=O)OC(C)(C)C` (relative stereo) [Example 76, [S-(R*,R*)]-3-(4-Benzyloxy-phenyl)-2-{4-methyl-2-[3-(3-trifluoromethyl-phenyl)-ureido]-pentanoylamino}-propionic acid tert-butyl ester] was 27%; that for `CCOC(=O)c1ccc(NC(=O)N[C@@H](CC(C)C)C(=O)N[C@@H](Cc2ccc(OCc3ccccc3)cc2)C(=O)OC(C)(C)C)cc1` (relative stereo) [Example 77, [S-(R*,R*)]-4-(3-{1-[2-(4-Benzyloxy-phenyl)-1tert-butoxycarbonyl-ethylcarbamoyl]-3-methylbutyl}-ureido)-benzoic acid ethyl ester] was 22%. The value for `CC(C)C[C@H](NC(=O)Nc1ccc(Cl)c(C(F)(F)F)c1)C(=O)N[C@@H](Cc1ccc(OCc2ccccc2)cc1)C(=O)OC(C)(C)C` (relative stereo) [Example 78, [S-(R*,R*)]-3-(4-Benzyloxy-phenyl)-2-{2-[3-(4-chloro-3-trifluoromethyl-phenyl)-ureido]-4-methyl-pentanoylamino}-propionic acid tert-butyl ester] was 24%; that for `CC(C)C[C@H](NC(=O)Nc1cccc2ccccc12)C(=O)N[C@@H](Cc1ccc(OCc2ccccc2)cc1)C(=O)OC(C)(C)C` (relative stereo) [Example 79, [S-(R*,R*)]-3-(4-Benzyloxy-phenyl)-2-[4-methyl-2-(3-naphthalen-1-yl-ureido)-pentanoylamino]-propionic acid tert-butyl ester] was 23%; that for `CC(C)C[C@H](NC(=O)Nc1ccc(Cl)cc1)C(=O)N[C@@H](Cc1ccc(OCc2ccccc2)cc1)C(=O)OC(C)(C)C` (relative stereo) [Example 80, [S-(R*,R*)]-3-(4-Benzyloxy-phenyl)-2-{2-[3-(4-chloro-phenyl)-ureido]-4-methyl-pentanoylamino}-propionic acid tert-butyl ester] was 40%. As for `CC(C)C[C@H](NC(=O)Nc1cccc(Cl)c1Cl)C(=O)N[C@@H](Cc1ccc(OCc2ccccc2)cc1)C(=O)OC(C)(C)C` (relative stereo) [Example 81, [S-(R*,R*)]-3-(4-Benzyloxy-phenyl)-2-{2-[3-(2,3-dichloro-phenyl)-ureido]-4-methyl-pentanoylamino}-propionic acid tert-butyl ester], the figure is 32%.
